From US10219516B2, “Molecules having pesticidal utility, and intermediates, compositions, and processes, related thereto” (priority 2015, dated 2019) come the findings set out here.

Read-outs that look alike come from different tables or passages of the source.

Common to all, as to assay type: in vivo
Assay [1] has as its system Beet Armyworm (Spodoptera exigua, LAPHEG). Kind of assay: Bioassay on Beet Armyworm (BAW), 128-well diet tray assay. The essentials: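 Percent mortality, averaged across eight replicate wells, was scored after five to seven days at 25° C. under a 14:10 light-dark cycle. Each well's diet carried 50 μg/cm^2 of the dried test molecule and held one to five second instar larvae.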

Assay [2] deals with Green Peach Aphid (Myzus persicae, MYZUPE). Nature of the assay: Bioassay on Green Peach Aphid (GPA), foliar spray on infested cabbage seedlings. Conditions: 72 h. How it is done: Certain molecules disclosed in this document were tested against GPA using procedures described in the following example. In the reporting of the results, the “GPA & YFM Rating Table” was used (See Table Section).
Cabbage seedlings grown in 3-inch pots, with 2-3 small (3-5 cm) true leaves, were used as test substrate. The seedlings were infested with 20-50 GPA (wingless adult and nymph stages) one day prior to chemical application. Four pots with individual seedlings were used for each treatment. Test molecules (2 mg) were dissolved in 2 mL of acetone/methanol (1:1) solvent, forming stock solutions of 1000 ppm test molecule. The stock solutions were diluted 5× with 0.025% Tween 20 in water to obtain the solution at 200 ppm test molecule. A hand-held aspirator-type sprayer was used for spraying a solution to both sides of […] leaves until runoff. Reference plants (solvent check) were sprayed with the diluent only containing 20% by volume of acetone/methanol (1:1) solvent. Treated plants were held in a holding room for three days at approximately 25° C. and ambient relative humidity (RH) prior to grading. Evaluation was conducted by counting the number of live aphids per plant under a microscope. Percent control was measured using Abbott's correction formula (W. S. Abbott, “A Method of Computing the Effectiveness of an Insecticide” 3. Econ. Entomol. 18 (1925), pp. 265-267) as follows. Corrected % Control=100*(X−Y)/X where X=No. of live aphids on solvent check plants and Y=No. of live aphids on treated plants. The results are indicated in the table entitled “Table ABC: Biological Results” (See Table Section).

For assay [3], the system named is Cabbage Looper (Trichoplusia ni, TRIPNI). Kind of assay: Bioassay on Cabbage Looper (CL), 128-well diet tray assay. Conditions: Trichoplusia ni. The method in brief:
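Second-instar larvae, one to five per well, placed on artificial diet treated with 50 μg/cm^2 test molecule in 90:10 acetone-water, dried before infestation. Held 5–7 days at 25° C, 14:10 light-dark; percent mortality averaged over eight wells.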

In assay [4] the test system is Yellow Fever Mosquito (Aedes aegypti, AEDSAE). Nature of the assay: Bioassay on Yellow Fever Mosquito (YFM), 96-well plate larval assay. Conditions: Yellow Fever Mosquito, 96-well plate larval assay. The method in brief:
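Compound stocks at 4000 ppm in DMSO were diluted with 90:10 water/acetone, and 15 μL aliquots were dispensed into six replicate plates. About 1-day-old larvae in liver-powder water were added per well. Plates were covered and held at room temperature for 3 days before each well was scored for mortality.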

Where [5] appears, read: Species BAW (Beet Armyworm), read-out: BAW (Biological Results, rating).
Setting [6] is: foliar, Species GPA (Green Peach Aphid), read-out: GPA (Biological Results, rating).
Setting [7] is: Species CL (Cabbage Looper), read-out: CL (Biological Results, rating).
The mark [8] stands for this setting: Beet Armyworm, 128-well diet tray assay, read-out: BAW rating.
Where [9] appears, read: Cabbage Looper, 128-well diet tray assay, read-out: CL rating.

For the compound `O=C(Nc1ccc(Cl)cc1)c1cc(NC(=O)[C@H]2[C@H](c3cc(Cl)cc(Cl)c3)C2(Cl)Cl)ccc1Cl` (relative stereo) [F7, trans-2-Chloro-N-(4-chlorophenyl)-5-(2,2-dichloro-3-(3,5-dichlorophenyl)cyclopropane-1-carboxamido)benzamide], the pest or weed control at 50 µg/cm2 in assay [1] (setting [5]) and in assay [3] (setting [7]) was 50 to 100% throughout. In assay [2] (setting [6]), the pest or weed control at 200 µg/mL was in the range of 0 to 80%.
As for `O=C(Nc1ccc(F)cc1Cl)c1cc(NC(=O)[C@H]2[C@H](c3cc(Cl)cc(Cl)c3)C2(Cl)Cl)ccc1Cl` (relative stereo) [F8, trans-2-Chloro-N-(2-chloro-4-fluorophenyl)-5-(2,2-dichloro-3-(3,5-dichlorophenyl)cyclopropane-1-carboxamido)benzamide], the pest or weed control at 50 µg/cm2 in assay [1] (setting [5]) and in assay [3] (setting [7]) was 50 to 100% throughout. The pest or weed control at 200 µg/mL in assay [2] (setting [6]) fell in the range of 80 to 100%.
Take `O=C(Nc1ccc(F)cc1)c1cc(NC(=O)[C@H]2[C@H](c3cc(Cl)cc(Cl)c3)C2(Cl)Cl)ccc1Br` (relative stereo) [F11, trans-2-Bromo-5-(2,2-dichloro-3-(3,5-dichlorophenyl)cyclopropane-1-carboxamido)-N-(4-fluorophenyl)benzamide]: the pest or weed control at 50 µg/cm2 in assay [1] (setting [5]) and in assay [3] (setting [7]) was 50 to 100% in each case. Also, the pest or weed control at 200 µg/mL in assay [2] (setting [6]) was 0 to 80%.
As to `CN(C(=O)c1cc(NC(=O)[C@H]2[C@H](c3cc(Cl)cc(Cl)c3)C2(Cl)Cl)ccc1F)c1ccc(F)cc1` (relative stereo) [F45, trans-5-(2,2-Dichloro-3-(3,5-dichlorophenyl)cyclopropane-1-carboxamido)-2-fluoro-N-(4-fluorophenyl)-N-methylbenzamide], the pest or weed control at 50 µg/cm2 in assay [1] (setting [5]) and in assay [3] (setting [7]) was 50 to 100% each time. Besides, in assay [2] (setting [6]), the pest or weed control at 200 µg/mL lay within 0 to 80%.
On to `CC(C)(C)OC(=O)Nc1cc(C(F)(F)F)cc(NC(=O)c2cc(NC(=O)[C@H]3[C@H](c4cc(Cl)cc(Cl)c4)C3(Cl)Cl)ccc2Cl)n1` (relative stereo) [F507, tert-Butyl (6-(2-chloro-5-(trans-2,2-dichloro-3-(3,5-dichlorophenyl)cyclopropane-1-carboxamido)benzamido)-4-(trifluoromethyl)pyridin-2-yl)carbamate], for which, in assay [2] (Green Peach Aphid, foliar spray on cabbage seedlings, read-out: GPA rating), the pest or weed control at 200 µg/mL is 0 to 80%.
As to `COc1cc(NC(=O)c2cc(NC(=O)C3C(c4cc(Cl)cc(Cl)c4)C3(Cl)Cl)ccc2Cl)ccc1Cl` (stereo not drawn) [PF114, 2-Chloro-N-(4-chloro-3-methoxyphenyl)-5-(trans)-2,2-dichloro-3-(3,5-dichlorophenyl)cyclopropane-1-carboxamido)benzamide], the pest or weed control at 50 µg/cm2 in assay [1] (setting [8]) and in assay [3] (setting [9]) was 50 to 100% in each case. The YFM rating entry in assay [4] is given as “A (80-100)”.
For `O=C(Nc1ccc(Br)c(F)c1)c1cc(NC(=O)C2C(c3cc(Cl)cc(Cl)c3)C2(Cl)Cl)ccc1Cl` (stereo not drawn) [PF115, N-(4-Bromo-3-fluorophenyl)-2-chloro-5-(trans)-2,2-dichloro-3-(3,5-dichlorophenyl)cyclopropane-1-carboxamido)benzamide], the pest or weed control at 50 µg/cm2 in assay [1] (setting [8]) and in assay [3] (setting [9]) was 50 to 100% in each case. For the same compound, in assay [4], the YFM rating entry is listed as “A (80-100)”.
For `O=C(Nc1ccc(Cl)cc1F)c1cc(NC(=O)C2C(c3cc(Cl)cc(Cl)c3)C2(Cl)Cl)ccc1Cl` (stereo not drawn) [PF116, 2-Chloro-N-(4-chloro-2-fluorophenyl)-5-(trans)-2,2-dichloro-3-(3,5-dichlorophenyl)cyclopropane-1-carboxamido)benzamide], the pest or weed control at 50 µg/cm2 in assay [1] (setting [8]) and in assay [3] (setting [9]) was 50 to 100% throughout. Further, the YFM rating entry in assay [4] is listed as “B (More than 0-Less than 80)”.
For `O=C(Nc1ccc(Cl)c(Cl)c1)c1cc(NC(=O)C2C(c3cc(Cl)cc(Cl)c3)C2(Cl)Cl)ccc1Cl` (stereo not drawn) [PF117, 2-Chloro-5-(trans)-2,2-dichloro-3-(3,5-dichlorophenyl)cyclopropane-1-carboxamido)-N-(3,4-dichlorophenyl)benzamide], the pest or weed control at 50 µg/cm2 in assay [1] (setting [8]) and in assay [3] (setting [9]) was 50 to 100% throughout. In addition, the YFM rating entry in assay [4] is on record as “A (80-100)”.
For the compound `O=C(Nc1cc(F)ccc1F)c1cc(NC(=O)C2C(c3cc(Cl)cc(Cl)c3)C2(Cl)Cl)ccc1Cl` (stereo not drawn) [PF118, 2-Chloro-5-(trans)-2,2-dichloro-3-(3,5-dichlorophenyl)cyclopropane-1-carboxamido)-N-(2,5-difluorophenyl)benzamide], the pest or weed control at 50 µg/cm2 in assay [1] (setting [8]) and in assay [3] (setting [9]) was 50 to 100% each time. The YFM rating result in assay [4] is reported as “B (More than 0-Less than 80)”.
For the compound `O=C(Nc1ccc(F)c(Cl)c1)c1cc(NC(=O)C2C(c3cc(Cl)cc(Cl)c3)C2(Cl)Cl)ccc1Cl` (stereo not drawn) [PF122, 2-Chloro-N-(3-chloro-4-fluorophenyl)-5-(trans)-2,2-dichloro-3-(3,5-dichlorophenyl)cyclopropane-1-carboxamido)benzamide], the pest or weed control at 50 µg/cm2 in assay [1] (setting [8]) and in assay [3] (setting [9]) was 50 to 100% in each case. Besides, the YFM rating entry in assay [4] is recorded as “B (More than 0-Less than 80)”.
`O=C(Nc1ccc(Cl)c(F)c1)c1cc(NC(=O)C2C(c3cc(Cl)cc(Cl)c3)C2(Cl)Cl)ccc1Cl` (stereo not drawn) [PF123, 2-Chloro-N-(4-chloro-3-fluorophenyl)-5-(trans)-2,2-dichloro-3-(3,5-dichlorophenyl)cyclopropane-1-carboxamido)benzamide]: the pest or weed control at 50 µg/cm2 in assay [1] (setting [8]) and in assay [3] (setting [9]) was 50 to 100% throughout. Besides, in assay [4], the YFM rating result is “A (80-100)”.
`C#Cc1cccc(NC(=O)c2cc(NC(=O)C3C(c4cc(Cl)cc(Cl)c4)C3(Cl)Cl)ccc2Cl)c1` (stereo not drawn) [PF124, 2-Chloro-5-(trans)-2,2-dichloro-3-(3,5-dichlorophenyl)cyclopropane-1-carboxamido)-N-(3-ethynylphenyl)benzamide]: the pest or weed control at 50 µg/cm2 in assay [1] (setting [8]) and in assay [3] (setting [9]) was 50 to 100% throughout. For the same compound, the YFM rating entry in assay [4] is listed as “A (80-100)”.
For `Cc1ccc(NC(=O)c2cc(NC(=O)C3C(c4cc(Cl)cc(Cl)c4)C3(Cl)Cl)ccc2Cl)cc1Cl` (stereo not drawn) [PF125, 2-Chloro-N-(3-chloro-4-methylphenyl)-5-(trans)-2,2-dichloro-3-(3,5-dichlorophenyl)cyclopropane-1-carboxamido)benzamide], the pest or weed control at 50 µg/cm2 in assay [1] (setting [8]) and in assay [3] (setting [9]) was 50 to 100% throughout. In addition, in assay [4], the YFM rating entry is “A (80-100)”.
In the case of `O=C(Nc1ccc2cc[nH]c2c1)c1cc(NC(=O)C2C(c3cc(Cl)cc(Cl)c3)C2(Cl)Cl)ccc1Cl` (stereo not drawn) [PF126, 2-Chloro-5-(trans)-2,2-dichloro-3-(3,5-dichlorophenyl)cyclopropane-1-carboxamido)-N-(1H-indol-6-yl)benzamide], the pest or weed control at 50 µg/cm2 in assay [1] (setting [8]) and in assay [3] (setting [9]) was 50 to 100% each time. In assay [4], the YFM rating result was “A (80-100)”.
Consider `O=C(Nc1ccc(Cl)c(Cl)c1F)c1cc(NC(=O)C2C(c3cc(Cl)cc(Cl)c3)C2(Cl)Cl)ccc1Cl` (stereo not drawn) [PF127, 2-Chloro-N-(3,4-dichloro-2-fluorophenyl)-5-(trans)-2,2-dichloro-3-(3,5-dichlorophenyl)cyclopropane-1-carboxamido)benzamide], for which the pest or weed control at 50 µg/cm2 in assay [1] (setting [8]) and in assay [3] (setting [9]) was 50 to 100% in each case. The YFM rating result in assay [4] is listed as “A (80-100)”.
`O=C(Nc1nnc(Br)s1)c1cc(NC(=O)C2C(c3cc(Cl)cc(Cl)c3)C2(Cl)Cl)ccc1Cl` (stereo not drawn) [PF133, trans-N-(5-bromo-1,3,4-thiadiazol-2-yl-2-chloro-5-(2,2-dichloro-3-(3,5-dichlorophenyl)cyclopropane-1-carboxamido)benzamide]: the pest or weed control at 50 µg/cm2 in assay [1] (setting [8]) and in assay [3] (setting [9]) was 50 to 100% each time. In addition, the YFM rating result in assay [4] is given as “A (80-100)”.
Consider `N#Cc1cc(Cl)cc(C2C(C(=O)Nc3ccc(Cl)c(C(=O)Nc4ccc(F)cc4)c3)C2(Cl)Cl)c1` (stereo not drawn) [PF155, 2-Chloro-5-(trans)-2,2-dichloro-3-(3-chloro-5-cyanophenyl)cyclopropane-1-carboxamido)-N-(4-fluorophenyl)benzamide], for which the pest or weed control at 50 µg/cm2 in assay [1] (setting [8]) and in assay [3] (setting [9]) was 50 to 100% each time. Also, in assay [4], the YFM rating entry was “B (More than 0-Less than 80)”.
